The source of these data is US20130096138A1, “NOVEL THIOUREA OR UREA DERIVATIVE, PREPARATION METHOD THEREOF, AND PHARMACEUTICAL COMPOSITION FOR PREVENTING OR TREATING AIDS, CONTAINING SAME AS ACTIVE INGREDIENT” (AVIXGEN INC., priority 2010, published 2013).

The test system of the assay is HIV. The experiment in a line: Assay for inhibitory activity against HIV (p24 ELISA, infected MT-4 cells). Type of assay: cell-based. The settings on record: Human immunodeficiency virus 1, MT4, MT-4 cells infected with pNL4-3-derived HIV, 48 hrs + additional 48 hrs culture, read-out: Conc. for Inhibition of HIV Activity (IC50). Here is the method:
The thiourea or urea derivatives of the present invention were assayed for inhibitory activity against HIV as follows.
A pNL4-3 vector carrying an HIV genome was transduced into 293FT cells. […] 293FT cells were seeded at a density of 3.0×10^5 cells/well into 6-well plates containing antibiotic-free DMEM supplemented with 10% FBS and grown for 48 hrs. Upon 90˜95% confluency, the transduction was performed.
The DNA (pNL4-3) was added at a final concentration of 10 ng/mL to 250 μL of the reduced serum medium Opti-MEM I (GIBCO™, USA). Separately, 4 μL of Lipofectamine™ 2000 (Invitrogen, USA) was mixed with 250 μL of Opti-MEM I (GIBCO™), and incubated at room temperature for 5 min. The DNA (pNL4-3) was mixed at a ratio of 1:2 with the lipofectamine and reacted at room temperature for 20 min to form a DNA-lipofectamine complex. After removal of the medium from the cell culture, the DNA-lipofectamine complex was added to the cells and incubated for 4 hrs in a CO2 incubator. Then, the cell culture medium was replaced with a fresh antibiotic-free, 10% FBS-supplemented DMEM, followed by incubation for an additional 48 hrs. The HIV-infected cell culture was centrifuged at 1,500 rpm for 5 min to give a virus supernatant.
MT-4 cells were plated at a density of 1.0×10^6 cells/mL into 6-well plates containing RPMI supplemented with 10% FBS, and incubated for 4 hrs before infection at a ratio of 1:1 with the virus supernatant. The cells were incubated for 48 hrs in a CO2 incubator, after which the culture medium was replaced with a fresh one. Again, incubation was continued for an additional 72 hrs to amplify the virus. After centrifugation at 1,500 rpm for 5 min, the virus supernatant thus obtained was examined for virus density using a Virononstika HIV-1 Antigen Microelisa system kit (bioMerieux, Inc. Netherland).
2. Assay for Inhibitory Activity against HIV
The thiourea or urea derivatives prepared in Examples 1 to 94 were dissolved in DMSO to prepare respective 10 mM or 20 mM stocks, and stored at −20° C. The stocks were diluted to a starting concentration of 200 μM in DMSO before use in experiments.
MT-4 cells were suspended at a density of 4×10^5 cells in 200 μL of RPMI 1640 (Gibco, 10% FBS) per well of 24-well plates, and infected with 200 μL of a virus supernatant containing 2×10^5 pg/mL to give a total volume of 400 μL. After the stocks of the thiourea or urea derivatives were […] to 200 μM in DMSO, 2 μL of each dilution was added to the cells to a final concentration of 1 μM or less. For a positive control, 10 μM AZT (azidothymidine,Sigma, USA) was used at a final concentration of 50 nM while DMSO was used at a final concentration of 0.5% as a negative control. The cells were cultured for 48 hrs in a CO2 incubator (37° C., 5% CO2), and the culture medium was replaced by RPMI 1640 containing the thiourea or urea derivative at a final concentration of 1 μM, followed by incubation for an additional 48 hrs. Virus soups were separated from cells by centrifugation at 1,500 rpm for 5 min and then at 13,000 rpm for 5 min. ELISA for p24 concentrations was carried out using a Virononstika HIV-1 Antigen Microelisa system kit (bioMerieux, Inc. Netherland) to determine the inhibitory activity of each of the thiourea or urea derivatives against HIV.
In general terms: ELISA stands for enzyme-linked immunosorbent assay.

Consider `CC(C)(C)c1ccc(C(=O)NC(=S)Nc2cccc3c(O)cccc23)cc1` [Example 1, 1-(4-tert-Butyl-benzoyl)-3-(5-hydroxy-naphthalen-1-yl)-thiourea], for which the IC50 was 30 nM.
To `CC(C)(C)c1ccc(C(=O)NC(=S)NC2CCCCC2)cc1` [Example 16, 1-(4-tert-butyl-benzoyl)-3-cyclohexyl-thiourea] belongs 500 nM; to `CC(C)(C)c1ccc(C(=O)NC(=S)Nc2ccccn2)cc1` [Example 37, 1-(4-tert-butyl-benzoyl)-3-(pyridin-2-yl)-thiourea], 500 nM.
The same measure for `CC(C)(C)c1ccc(C(=O)NC(=S)Nc2cccc(Cl)c2)cc1` [Example 38, 1-(4-tert-butyl-benzoyl)-3-(3-chloro-phenyl)-thiourea]: 300 nM.
Turning to `CC(C)(C)c1ccc(C(=O)NC(=S)Nc2cccc3ncccc23)cc1` [Example 50, 1-(4-tert-butyl-benzoyl)-3-(quinolin-5-yl)-thiourea], the IC50 turned out to be 1000 nM.

By IC50 is commonly meant the point on the concentration scale where inhibition reaches its midpoint.
